# According to patent US10472364B2 (Calithera Biosciences, Inc., priority 2016, dated 2019):
# Target: recombinant CD73 (Homo sapiens (Human), UniProt P21589)
# Assay: Inhibition of the CD73 enzyme in vitro (soluble recombinant CD73, Malachite Green)
# Type: biochemical
# Details: recombinant CD73 0.5 nM, AMP 50 μM, 30 minutes at room temperature
# Description: The concentration of inorganic phosphate was determined using a phosphate standard curve.
# recombinant CD73, sequence (P21589 27-547): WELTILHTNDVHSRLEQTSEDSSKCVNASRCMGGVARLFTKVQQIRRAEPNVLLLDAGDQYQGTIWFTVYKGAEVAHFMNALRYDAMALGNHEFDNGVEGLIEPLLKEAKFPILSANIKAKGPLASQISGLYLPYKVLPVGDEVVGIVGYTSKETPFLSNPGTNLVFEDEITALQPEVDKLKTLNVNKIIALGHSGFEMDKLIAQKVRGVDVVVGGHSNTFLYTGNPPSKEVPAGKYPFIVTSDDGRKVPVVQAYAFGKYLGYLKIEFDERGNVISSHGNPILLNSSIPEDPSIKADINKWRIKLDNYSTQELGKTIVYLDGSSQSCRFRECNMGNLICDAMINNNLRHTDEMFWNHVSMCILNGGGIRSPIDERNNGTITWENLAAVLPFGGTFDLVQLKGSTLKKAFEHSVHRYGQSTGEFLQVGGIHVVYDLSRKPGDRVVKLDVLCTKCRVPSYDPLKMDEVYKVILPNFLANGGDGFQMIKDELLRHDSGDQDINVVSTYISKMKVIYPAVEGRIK
row,IC50 [µM],SMILES
1,0.322,"COC(=O)c1ccc(CC(OC[C@H]2O[C@@H](n3cnc4c(N)nc(Cl)nc43)[C@@H](F)[C@@H]2O)(C(=O)O)C(=O)O)cc1 [compound 91, 2-(((2R,3R,4S,5R)-5-(6-amino-2-chloro-9H-purin-9-yl)-4-fluoro-3-hydroxytetrahydrofuran-2-yl)methoxy)-2-(4-(methoxycarbonyl)benzyl)malonic acid]"
2,8.61,"Cn1nc(CC(OC[C@H]2O[C@@H](n3cnc4c(N)nc(Cl)nc43)[C@@H](F)[C@@H]2O)(C(=O)O)C(=O)O)cc1C(=O)O [compound 73, 2-(((2R,3R,4S,5R)-5-(6-amino-2-chloro-9H-purin-9-yl)-4-fluoro-3-hydroxytetrahydrofuran-2-yl)methoxy)-2-((5-carboxy-1-methyl-1H-pyrazol-3-yl)methyl)malonic acid]"
3,0.121,"Nc1nc(Cl)nc2c1ncn2[C@@H]1O[C@H](COC(Cc2ccc(C(=O)O)cc2)(C(=O)O)C(=O)O)[C@@H](O)[C@@H]1F [compound 7, 2-(((2R,3R,4S,5R)-5-(6-amino-2-chloro-9H-purin-9-yl)-4-fluoro-3-hydroxytetrahydro-furan-2-yl)methoxy)-2-(4-carboxybenzyl)-malonic acid]"
4,> 50,"Cc1cn([C@H]2C[C@H](O)[C@@H](COC(C(=O)O)C(=O)O)O2)c(=O)[nH]c1=O [compound 14, 2-(((2R,3S,5R)-3-hydroxy-5-(5-methyl-2,4-dioxo-3,4-dihydropyrimidin-1(2H)-yl)tetrahydrofuran-2-yl)methoxy)malonic acid]"

# Target: endogenous, cell-bound CD73 on SK-MEL-28 cells (Homo sapiens (Human), UniProt P21589)
# Sequence (P21589 27-574): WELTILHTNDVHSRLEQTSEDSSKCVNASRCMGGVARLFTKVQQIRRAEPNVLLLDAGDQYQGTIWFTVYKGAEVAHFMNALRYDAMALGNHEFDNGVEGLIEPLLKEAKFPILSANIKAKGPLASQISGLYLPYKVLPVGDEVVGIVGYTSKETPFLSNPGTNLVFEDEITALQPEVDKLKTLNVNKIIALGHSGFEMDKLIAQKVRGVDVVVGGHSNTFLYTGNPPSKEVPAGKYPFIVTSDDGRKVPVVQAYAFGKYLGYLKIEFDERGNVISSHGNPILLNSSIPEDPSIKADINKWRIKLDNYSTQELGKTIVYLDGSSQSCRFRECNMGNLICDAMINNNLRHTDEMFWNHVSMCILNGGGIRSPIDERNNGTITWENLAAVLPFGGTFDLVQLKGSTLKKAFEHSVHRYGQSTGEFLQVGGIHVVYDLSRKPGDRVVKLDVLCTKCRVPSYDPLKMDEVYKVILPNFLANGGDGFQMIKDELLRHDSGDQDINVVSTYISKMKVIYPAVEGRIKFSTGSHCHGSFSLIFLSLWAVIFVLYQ
# Assay: Inhibition of endogenous, cell-bound CD73 enzyme activity in SK-MEL-28 cells (Malachite Green)
# Type: cell-based
# Details: 100 μM AMP, 30 minutes at room temperature
# Description: The day before the experiment, 5000 cells were plated per well in a 96-well plate. Cells were washed twice with […] reaction buffer (20 mM HEPES, pH 7.4, 125 mM NaCl, 1 mM KCl, 2 mM MgCl2, 10 mM glucose) to remove residual inorganic phosphate. After washing, assays contained serial dilutions of test compounds and 100 μM of AMP in a total volume of 200 μL reaction buffer, with a final DMSO concentration≤0.5%. After 30 minutes at room temperature, supernatant was removed from the cells. […] The concentration of inorganic phosphate was determined using a phosphate standard curve to determine IC50.
row,IC50 [µM],SMILES
1,1.24,"Cn1nc(CC(OC[C@H]2O[C@@H](n3cnc4c(N)nc(Cl)nc43)[C@@H](F)[C@@H]2O)(C(=O)O)C(=O)O)cc1C(=O)O [compound 73, 2-(((2R,3R,4S,5R)-5-(6-amino-2-chloro-9H-purin-9-yl)-4-fluoro-3-hydroxytetrahydrofuran-2-yl)methoxy)-2-((5-carboxy-1-methyl-1H-pyrazol-3-yl)methyl)malonic acid]"
2,0.51,"CS(=O)(=O)c1ccc(CC(OC[C@H]2O[C@@H](n3cnc4c(N)nc(Cl)nc43)[C@@H](F)[C@@H]2O)(C(=O)O)C(=O)O)cc1 [compound 21, 2-(((2R,3R,4S,5R)-5-(6-amino-2-chloro-9H-purin-9-yl)-4-fluoro-3-hydroxytetrahydrofuran-2-yl)methoxy)-2-(4-(methylsulfonyl)benzyl)malonic acid]"
3,0.887,Nc1nc(Cl)nc2c1ncn2[C@@H]1O[C@H](COC(Cc2cccc(C(=O)O)c2)(C(=O)O)C(=O)O)[C@@H](O)[C@@H]1F [compound 42]
4,0.07,"Nc1nc(Cl)nc2c1ncn2[C@@H]1O[C@H](COC(Cc2ccc(OCC(F)(F)F)cc2)(C(=O)O)C(=O)O)[C@@H](O)[C@@H]1F [compound 89, 2-(((2R,3R,4S,5R)-5-(6-amino-2-chloro-9H-purin-9-yl)-4-fluoro-3-hydroxytetrahydrofuran-2-yl)methoxy)-2-(4-(2,2,2-trifluoroethoxy)benzyl)malonic acid]"
5,0.257,"Nc1nc(Cl)nc2c1ncn2[C@@H]1O[C@H](COC(Cc2ccc(C(=O)O)cc2)(C(=O)O)C(=O)O)[C@@H](O)[C@@H]1F [compound 7, 2-(((2R,3R,4S,5R)-5-(6-amino-2-chloro-9H-purin-9-yl)-4-fluoro-3-hydroxytetrahydro-furan-2-yl)methoxy)-2-(4-carboxybenzyl)-malonic acid]"
6,0.772,"Nc1nc(Cl)nc2c1ncn2[C@@H]1O[C@H](COC(Cc2ccc(Cl)nc2)(C(=O)O)C(=O)O)[C@@H](O)[C@@H]1F [compound 8, 2-(((2R,3R,4S,5R)-5-(6-amino-2-chloro-9H-purin-9-yl)-4-fluoro-3-hydroxytetrahydro-furan-2-yl)methoxy)-2-((6-chloropyridin-3-yl)methyl)malonic acid]"
7,5.72,"CNC(=O)C(OC[C@H]1O[C@@H](n2cnc3c(N)nc(Cl)nc32)[C@@H](F)[C@@H]1O)P(=O)(O)O (stereo partly drawn) [compound 29, (1-(((2R,3R,4S,5R)-5-(6-amino-2-chloro-9H-purin-9-yl)-4-fluoro-3-hydroxytetrahydrofuran-2-yl)methoxy)-2-(methylamino)-2-oxoethyl)phosphonic acid]"
8,1.01,Nc1nc(Cl)nc2c1ncn2[C@@H]1O[C@H](COC(Cc2cccc(F)c2)(C(=O)O)C(=O)O)[C@@H](O)[C@@H]1F [compound 44]
9,6.37,"Nc1nc(Cl)nc2c1ncn2[C@@H]1O[C@H](COC(Cc2nnn[nH]2)(C(=O)O)C(=O)O)[C@@H](O)[C@@H]1F [compound 50, 2-((1H-tetrazol-5-yl)methyl)-2-(((2R,3R,4S,5R)-5-(6-amino-2-chloro-9H-purin-9-yl)-4-fluoro-3-hydroxytetrahydrofuran-2-yl)methoxy)malonic acid]"
10,0.426,"Nc1nc(Cl)nc2c1ncn2[C@@H]1O[C@H](COC(Cc2ccc(O)cc2)(C(=O)O)C(=O)O)[C@@H](O)[C@@H]1F [compound 66, 2-(((2R,3R,4S,5R)-5-(6-amino-2-chloro-9H-purin-9-yl)-4-fluoro-3-hydroxytetrahydrofuran-2-yl)methoxy)-2-(4-hydroxybenzyl)malonic acid]"
11,1.14,CN(C)C(=O)c1cccc(CC(OC[C@H]2O[C@@H](n3cnc4c(N)nc(Cl)nc43)[C@@H](F)[C@@H]2O)(C(=O)O)C(=O)O)c1 [compound 22]
12,0.598,"CCOC(=O)C(Cc1ccc(OC(F)(F)F)cc1)(OC[C@H]1O[C@@H](n2cnc3c(N)nc(Cl)nc32)[C@@H](F)[C@@H]1O)C(=O)O (single isomer, unassigned) [compound 37]"
